Measured values from patent publication US20240228482A1, “COMPOUNDS, COMPOSITIONS AND METHODS OF TREATING CANCER” (HOTSPOT THERAPEUTICS, INC., priority 2021, published 2024).

Molecular target: T1, CBL-B (Homo sapiens, UniProt Q13191)
T1 construct: GST
Assay: CBL-B TR-FRET IC50 screening (E1/E2 ubiquitination, Biotin-Ubiquitin, Anti GST-Tb donor / Streptavidin-d2 acceptor)
Type: biochemical
Conditions: CBL-B 10 nM final; 11-point titration from 100 uM; binned A-F; read-out: CBL-B TR-FRET activity IC50

T1 sequence (Q13191 whole entry): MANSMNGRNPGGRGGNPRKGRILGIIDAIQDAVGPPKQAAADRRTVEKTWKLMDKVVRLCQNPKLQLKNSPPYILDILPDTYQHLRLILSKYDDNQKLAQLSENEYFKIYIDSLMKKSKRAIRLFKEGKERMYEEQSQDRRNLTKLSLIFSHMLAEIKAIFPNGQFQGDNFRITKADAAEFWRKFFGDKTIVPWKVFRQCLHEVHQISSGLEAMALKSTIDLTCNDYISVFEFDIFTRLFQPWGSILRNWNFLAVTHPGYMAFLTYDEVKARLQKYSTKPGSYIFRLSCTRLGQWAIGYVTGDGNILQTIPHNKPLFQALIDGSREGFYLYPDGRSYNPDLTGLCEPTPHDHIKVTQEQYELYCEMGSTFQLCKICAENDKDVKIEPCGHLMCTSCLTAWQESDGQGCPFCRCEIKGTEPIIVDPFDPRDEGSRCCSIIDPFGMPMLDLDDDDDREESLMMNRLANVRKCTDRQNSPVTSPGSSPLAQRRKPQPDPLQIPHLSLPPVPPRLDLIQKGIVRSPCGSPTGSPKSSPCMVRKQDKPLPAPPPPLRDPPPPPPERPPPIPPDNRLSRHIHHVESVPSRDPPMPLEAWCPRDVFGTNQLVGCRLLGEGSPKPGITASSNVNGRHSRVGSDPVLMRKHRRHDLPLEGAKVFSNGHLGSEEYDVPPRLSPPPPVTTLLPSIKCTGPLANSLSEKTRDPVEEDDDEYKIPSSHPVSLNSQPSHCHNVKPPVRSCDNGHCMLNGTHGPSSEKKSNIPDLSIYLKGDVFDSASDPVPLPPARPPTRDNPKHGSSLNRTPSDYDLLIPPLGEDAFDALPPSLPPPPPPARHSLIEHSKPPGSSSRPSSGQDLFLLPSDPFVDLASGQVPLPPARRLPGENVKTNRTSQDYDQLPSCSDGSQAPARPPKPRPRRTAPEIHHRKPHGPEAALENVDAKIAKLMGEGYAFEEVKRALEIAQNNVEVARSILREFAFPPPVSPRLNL

| Structure (SMILES) | IC50 [µM] |
| --- | --- |
| Cn1cnnc1C1(c2cccc(-n3cc4c(C(F)(F)F)cc(CN5CCC(C)(F)CC5)cn4c3=O)c2)CC2(CC2)C1 [Compound 111] | < 0.1 |
| Cn1cnnc1C1(c2cccc(-n3cc4c(C(F)(F)F)cc(CN5CCC(F)CC5)cn4c3=O)c2)CC2(CC2)C1 [Compound 112] | < 0.1 |
| Cn1cnnc1C1(c2cccc(-n3cc4c(C(F)(F)F)cc(C#N)cn4c3=O)c2)CC2(CC2)C1 [Compound 113] | 0.301 to 1 |
| Cn1cnnc1C1(c2cccc(-n3cc4c(C(F)(F)F)cc(CN5CC6(CC6)C5)cn4c3=O)c2)CC2(CC2)C1 [Compound 114] | < 0.1 |
| Cn1cnnc1C1(c2cccc(-n3cc4c(C(F)(F)F)cc(CN5CCC6(CC6)C5)cn4c3=O)c2)CC2(CC2)C1 [Compound 115] | < 0.1 |
| C[C@@H]1CN(Cc2cc(C(F)(F)F)c3cn(-c4cccc(C5(c6nncn6C)CC6(CC6)C5)c4)c(=O)n3c2)CCO1 [Compound 116] | < 0.1 |
| Cn1cnnc1C1(c2cccc(-n3cc4c(C(F)(F)F)cc(CN5CC[C@H](F)C5)cn4c3=O)c2)CC2(CC2)C1 [Compound 117] | < 0.1 |
| [2H]C([2H])([2H])n1cnnc1C1(c2cccc(-n3cc4c(C(F)(F)F)cc(CN5CCO[C@H](C)C5)cn4c3=O)c2)CC2(CC2)C1 [Compound 118] | < 0.1 |
| COc1cc(-n2cc3c(C(F)(F)F)cc(CN4CCC(C)(F)CC4)cn3c2=O)cc(C2(Cc3nncn3C)COC2)c1 [Compound 121] | < 0.1 |
| CO[C@H]1CCCN(Cc2cc(C(F)(F)F)c3cn(-c4cccc(C5(Cc6nncn6C)COC5)c4)c(=O)n3c2)C1 [Compound 123] | < 0.1 |
| CO[C@@H]1CCCN(Cc2cc(C(F)(F)F)c3cn(-c4cccc(C5(Cc6nncn6C)COC5)c4)c(=O)n3c2)C1 [Compound 124] | < 0.1 |
| Cn1cnnc1CC1(c2cccc(-n3cc4c(C(F)(F)F)cc(CN5CCC[C@H](O)C5)cn4c3=O)c2)COC1 [Compound 125] | < 0.1 |
| Cn1cnnc1CC1(c2cccc(-n3cc4c(C(F)(F)F)cc(CN5CCC[C@@H](O)C5)cn4c3=O)c2)COC1 [Compound 126] | < 0.1 |
| Cn1cnnc1C(c1cccc(-n2cc3c(C(F)(F)F)cc(Br)cn3c2=O)c1)C1COC1 (stereo not drawn) [Compound 127] | 0.301 to 1 |
| Cn1cnnc1CC1(c2cccc(-n3cc4c(C(F)(F)F)cc(CN5CC6(COC6)C5)cn4c3=O)c2)COC1 [Compound 128] | < 0.1 |
| Cn1cnnc1CC1(c2cccc(-n3cc4c(C(F)(F)F)cc(CN5CC[C@H](O)C5)cn4c3=O)c2)COC1 [Compound 129] | 0.1 to 0.3 |
| Cn1cnnc1CC1(c2cccc(-n3cc4c(C(F)(F)F)cc(CN5CC[C@@H](O)C5)cn4c3=O)c2)COC1 [Compound 130] | 0.1 to 0.3 |
| Cn1cnnc1CC1(c2cccc(-n3cc4c(C(F)(F)F)cc(CN5CC6(CCO6)C5)cn4c3=O)c2)COC1 [Compound 131] | < 0.1 |
| CN(Cc1nncn1C)c1cccc(-n2cc3c(C(F)(F)F)cc(Br)cn3c2=O)c1 [Compound 132] | > 10 |
| Cn1cnnc1CC1(c2cccc(-n3cc4c(C(F)(F)F)cccn4c3=O)c2)CN(C(=O)OC(C)(C)C)C1 [Compound 133] | > 10 |
| CC(=O)NCc1cc(C(F)(F)F)c2cn(-c3cccc(C4(Cc5nncn5C)COC4)c3)c(=O)n2c1 [Compound 139] | 0.1 to 0.3 |
| C[C@H]1CCCN(Cc2cc(C(F)(F)F)c3cn(-c4cccc([C@H](c5nncn5C)C5COC5)c4)c(=O)n3c2)C1 [Compound 140] | < 0.1 |
| Cn1cnnc1C(c1cccc(-n2cc3c(C(F)(F)F)cccn3c2=O)c1)C1COC1 (stereo not drawn) [Compound 141] | 1 to 3 |
| Cn1cnnc1CC(c1cccc(-n2cc3c(C(F)(F)F)cccn3c2=O)c1)n1cccn1 (stereo not drawn) [Compound 142] | > 10 |
| CC(=O)N1CC(Cc2nncn2C)(c2cccc(-n3cc4c(C(F)(F)F)cccn4c3=O)c2)C1 [Compound 143] | > 10 |
| Cn1cnnc1CC1(c2cccc(-n3cc4c(C(F)(F)F)cccn4c3=O)c2)CNC1 [Compound 144] | > 10 |
| [2H]C([2H])([2H])n1cnnc1CC1(c2cccc(-n3cc4c(C(F)(F)F)cc(Br)cn4c3=O)c2)COC1 [Compound 145] | 0.1 to 0.3 |
